Results from ChEMBL document CHEMBL4406811, “Optimization and Mechanistic Characterization of Pyridopyrimidine Inhibitors of Bacterial Biotin Carboxylase” (J Med Chem, 2019).
Values after ≈ are worked out from the molar mass of the structure shown. Active and inactive are the calls of the source. The rule behind the calls is not given here.

Assays:
EGFR = EGFR (Homo sapiens, UniProt P00533); test: Inhibition of recombinant human GST-tagged EGFR cytoplasmic domain (668 to 1210 residues) expressed in baculovirus expression system at 25 uM using FRET-labeled tyr 04 peptide as substrate measured after 1 hr by Z'-lyte assay relative to control; settings: probe FRET-labeled tyr 04 peptide
Sequence of EGFR (P00533 whole entry, the tested form may be a part): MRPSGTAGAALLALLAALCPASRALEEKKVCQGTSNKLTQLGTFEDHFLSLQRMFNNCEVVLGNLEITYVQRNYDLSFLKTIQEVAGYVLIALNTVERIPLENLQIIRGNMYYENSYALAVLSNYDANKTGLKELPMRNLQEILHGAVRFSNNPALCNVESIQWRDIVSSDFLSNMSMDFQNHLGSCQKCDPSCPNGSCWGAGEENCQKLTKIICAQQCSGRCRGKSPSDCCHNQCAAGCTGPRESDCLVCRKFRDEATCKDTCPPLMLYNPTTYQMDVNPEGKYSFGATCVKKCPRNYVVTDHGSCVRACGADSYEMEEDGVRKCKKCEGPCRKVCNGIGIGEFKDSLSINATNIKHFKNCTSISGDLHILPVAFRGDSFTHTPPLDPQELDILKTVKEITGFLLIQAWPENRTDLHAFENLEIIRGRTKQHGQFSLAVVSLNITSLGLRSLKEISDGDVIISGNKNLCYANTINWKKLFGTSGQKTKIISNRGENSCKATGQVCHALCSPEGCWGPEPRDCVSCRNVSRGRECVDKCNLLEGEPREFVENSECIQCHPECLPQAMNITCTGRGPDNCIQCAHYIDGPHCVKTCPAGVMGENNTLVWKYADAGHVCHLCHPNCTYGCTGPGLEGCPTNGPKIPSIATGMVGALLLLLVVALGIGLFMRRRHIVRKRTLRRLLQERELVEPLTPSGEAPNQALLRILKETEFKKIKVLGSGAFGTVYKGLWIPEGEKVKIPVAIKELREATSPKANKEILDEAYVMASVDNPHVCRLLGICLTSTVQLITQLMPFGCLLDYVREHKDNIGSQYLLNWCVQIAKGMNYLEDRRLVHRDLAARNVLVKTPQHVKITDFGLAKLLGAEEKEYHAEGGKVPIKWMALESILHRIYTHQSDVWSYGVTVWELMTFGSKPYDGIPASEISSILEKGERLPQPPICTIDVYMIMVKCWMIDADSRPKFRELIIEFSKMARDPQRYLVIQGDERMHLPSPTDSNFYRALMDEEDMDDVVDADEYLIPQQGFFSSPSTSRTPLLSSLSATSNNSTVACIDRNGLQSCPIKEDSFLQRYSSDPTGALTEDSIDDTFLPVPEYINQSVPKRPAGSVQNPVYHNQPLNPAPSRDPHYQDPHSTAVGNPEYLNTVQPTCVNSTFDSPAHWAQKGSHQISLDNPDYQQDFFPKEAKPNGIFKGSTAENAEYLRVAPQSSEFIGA

GSK3B = GSK3B (Homo sapiens, UniProt P49841); test: Inhibition of recombinant human full-length His-tagged GSK3B expressed in baculovirus expression system at 25 uM using FRET-labeled Ser/Thr 09 peptide as substrate measured after 1 hr by Z'-lyte assay relative to control; settings: probe FRET-labeled Ser/Thr 09 peptide
Sequence of GSK3B (P49841 whole entry): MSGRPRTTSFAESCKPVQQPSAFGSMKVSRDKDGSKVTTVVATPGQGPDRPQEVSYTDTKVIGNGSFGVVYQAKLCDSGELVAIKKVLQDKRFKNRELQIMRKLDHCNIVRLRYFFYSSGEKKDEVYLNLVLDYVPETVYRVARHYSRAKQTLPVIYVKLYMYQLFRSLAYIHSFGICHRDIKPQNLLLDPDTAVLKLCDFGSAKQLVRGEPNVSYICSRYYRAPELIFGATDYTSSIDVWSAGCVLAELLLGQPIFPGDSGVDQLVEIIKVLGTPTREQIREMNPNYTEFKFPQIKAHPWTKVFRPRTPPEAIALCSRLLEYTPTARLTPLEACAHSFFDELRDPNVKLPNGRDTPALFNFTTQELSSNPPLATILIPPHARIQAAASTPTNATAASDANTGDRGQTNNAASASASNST

Biotin carboxylase = Biotin carboxylase (Pseudomonas aeruginosa (strain ATCC 15692 / DSM 22644 / CIP 104116 / JCM14847 / LMG 12228 / 1C / PRS 101 / PAO1), UniProt P37798); test: Inhibition of recombinant N-terminal His-tagged Pseudomonas aeruginosa PAO1 biotin carboxylase expressed in Escherichia coli Rosetta(DE3) pLysS cells using biotin as substrate by spectroscopic analysis
Sequence of Biotin carboxylase (P37798 whole entry): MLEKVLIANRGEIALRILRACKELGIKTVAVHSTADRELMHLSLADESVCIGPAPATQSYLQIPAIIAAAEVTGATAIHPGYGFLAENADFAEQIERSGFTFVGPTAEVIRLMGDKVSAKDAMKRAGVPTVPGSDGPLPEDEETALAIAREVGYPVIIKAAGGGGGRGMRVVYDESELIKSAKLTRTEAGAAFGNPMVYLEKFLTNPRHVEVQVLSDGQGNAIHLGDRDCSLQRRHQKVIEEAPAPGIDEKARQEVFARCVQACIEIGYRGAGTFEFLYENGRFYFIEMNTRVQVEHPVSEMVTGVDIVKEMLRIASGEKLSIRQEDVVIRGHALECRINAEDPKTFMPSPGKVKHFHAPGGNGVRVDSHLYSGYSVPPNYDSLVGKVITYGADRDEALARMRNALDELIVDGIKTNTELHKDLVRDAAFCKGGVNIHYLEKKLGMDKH

Pseudomonas aeruginosa = test: Antibacterial activity against Pseudomonas aeruginosa PAO1 PAM1262 harboring MexAB-OprM/MexCD-OprJ/MexEF-OprN deletion mutant assessed as mutation frequency at 8 times MIC after 48 hrs by broth microdilution method; format: functional
MAPK14 = MAPK14 (Homo sapiens, UniProt Q16539); test: Inhibition of recombinant human full-length GST-tagged MAPK14 expressed in Escherichia coli at 25 uM using FRET-labeled Ser/Thr 15 peptide as substrate measured after 1 hr by Z'-lyte assay relative to control; settings: probe FRET-labeled Ser/Thr 15 peptide
FYN = FYN (Homo sapiens, UniProt P06241); test: Inhibition of full-length recombinant human C-terminal His-tagged FYN cytoplasmic domain expressed in baculovirus expression system at 25 uM using FRET-labeled tyr 02 peptide as substrate measured after 1 hr by Z'-lyte assay relative to control; settings: probe FRET-labeled tyr 02 peptide
IKBKE = IKBKE (Homo sapiens, UniProt Q14164); test: in vitro; settings: probe FRET-labeled Ser/Thr 11 peptide
Sequence of IKBKE (Q14164 whole entry): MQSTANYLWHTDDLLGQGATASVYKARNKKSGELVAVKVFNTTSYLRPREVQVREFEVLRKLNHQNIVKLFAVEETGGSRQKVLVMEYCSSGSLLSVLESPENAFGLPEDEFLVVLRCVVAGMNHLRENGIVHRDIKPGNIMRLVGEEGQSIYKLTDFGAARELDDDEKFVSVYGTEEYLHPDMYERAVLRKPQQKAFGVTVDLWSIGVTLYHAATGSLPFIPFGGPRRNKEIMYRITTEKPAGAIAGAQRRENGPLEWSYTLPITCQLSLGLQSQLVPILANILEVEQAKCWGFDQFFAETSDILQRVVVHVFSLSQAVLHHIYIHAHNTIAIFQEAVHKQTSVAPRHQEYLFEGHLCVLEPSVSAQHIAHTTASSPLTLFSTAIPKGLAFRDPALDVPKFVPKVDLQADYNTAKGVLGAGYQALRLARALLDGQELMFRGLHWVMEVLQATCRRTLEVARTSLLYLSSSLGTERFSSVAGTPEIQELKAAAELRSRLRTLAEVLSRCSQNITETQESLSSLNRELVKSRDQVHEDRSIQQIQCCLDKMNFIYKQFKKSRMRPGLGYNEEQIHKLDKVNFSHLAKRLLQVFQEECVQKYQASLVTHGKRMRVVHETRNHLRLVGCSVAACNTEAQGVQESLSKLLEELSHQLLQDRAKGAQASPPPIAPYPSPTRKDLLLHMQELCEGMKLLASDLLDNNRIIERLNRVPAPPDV

Escherichia coli [1] = test: Induction of cytological changes in Escherichia coli ATCC 25922 assessed as formation of short chains of three to eight cells at 15 ug/ml measured after 2 hrs by FM 4-64/DAPI staining based microscopic analysis; format: functional, organism-based
MAPK1 = MAPK1 (Homo sapiens, UniProt P28482); test: Inhibition of recombinant human full-length GST-tagged MAPK1 […] expressed in Escherichia coli at 25 uM using FRET-labeled Ser/Thr 03 peptide as substrate measured after 1 hr by Z'-lyte assay relative to control; settings: probe FRET-labeled Ser/Thr 03 peptide
MET = MET (Homo sapiens, UniProt P08581); test: in vitro; settings: probe FRET-labeled Tyr 06 peptide
Sequence of MET (P08581 whole entry): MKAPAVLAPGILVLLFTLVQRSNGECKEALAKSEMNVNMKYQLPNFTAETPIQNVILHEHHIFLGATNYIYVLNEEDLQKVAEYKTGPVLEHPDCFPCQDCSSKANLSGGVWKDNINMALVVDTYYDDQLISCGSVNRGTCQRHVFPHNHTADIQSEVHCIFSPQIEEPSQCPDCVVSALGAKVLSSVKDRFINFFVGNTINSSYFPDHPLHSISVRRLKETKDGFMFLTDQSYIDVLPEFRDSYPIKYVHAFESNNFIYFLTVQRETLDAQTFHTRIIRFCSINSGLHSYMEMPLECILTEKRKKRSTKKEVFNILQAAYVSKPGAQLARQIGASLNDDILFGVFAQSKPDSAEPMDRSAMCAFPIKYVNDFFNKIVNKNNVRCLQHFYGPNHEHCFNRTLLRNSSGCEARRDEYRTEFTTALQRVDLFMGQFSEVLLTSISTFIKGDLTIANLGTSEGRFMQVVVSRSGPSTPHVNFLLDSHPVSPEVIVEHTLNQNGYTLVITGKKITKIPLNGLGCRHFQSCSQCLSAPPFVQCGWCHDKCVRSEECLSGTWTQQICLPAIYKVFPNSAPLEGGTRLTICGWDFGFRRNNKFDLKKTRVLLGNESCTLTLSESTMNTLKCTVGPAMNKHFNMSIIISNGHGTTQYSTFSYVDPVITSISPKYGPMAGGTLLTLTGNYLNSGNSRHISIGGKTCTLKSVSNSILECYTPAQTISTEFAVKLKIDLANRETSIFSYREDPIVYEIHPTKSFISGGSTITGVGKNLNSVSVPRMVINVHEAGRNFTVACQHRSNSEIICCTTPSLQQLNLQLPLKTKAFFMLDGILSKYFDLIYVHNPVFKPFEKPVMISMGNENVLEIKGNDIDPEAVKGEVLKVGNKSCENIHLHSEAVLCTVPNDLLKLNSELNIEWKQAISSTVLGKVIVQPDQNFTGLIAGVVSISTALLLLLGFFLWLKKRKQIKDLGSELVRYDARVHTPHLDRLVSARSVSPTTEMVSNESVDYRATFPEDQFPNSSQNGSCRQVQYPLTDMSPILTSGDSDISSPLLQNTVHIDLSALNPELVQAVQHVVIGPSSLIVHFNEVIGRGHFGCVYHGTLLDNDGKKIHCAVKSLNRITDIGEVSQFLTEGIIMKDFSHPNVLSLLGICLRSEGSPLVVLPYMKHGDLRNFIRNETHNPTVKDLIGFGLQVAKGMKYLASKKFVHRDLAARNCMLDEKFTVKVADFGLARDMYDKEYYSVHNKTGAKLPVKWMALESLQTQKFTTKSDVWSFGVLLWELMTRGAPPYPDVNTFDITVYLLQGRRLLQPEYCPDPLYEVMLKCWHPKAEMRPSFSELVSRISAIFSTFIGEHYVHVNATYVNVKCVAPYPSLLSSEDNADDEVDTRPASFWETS

Escherichia coli [2] = test: Antibacterial activity against Escherichia coli DM4100 harboring deltatolC mutant measured after 18 to 20 hrs by broth microdilution method; format: functional
Escherichia coli [3] = test: Induction of cytological changes in Escherichia coli ATCC 25922 assessed as formation of short chains of three to eight cells at 100 ug/ml measured after 2 hrs by FM 4-64/DAPI staining based microscopic analysis; format: functional, organism-based
CDK1/cyclin B = CDK1/cyclin B (Homo sapiens, UniProt P06493); test: Inhibition of full-length recombinant human His-tagged CDK1/cyclin B expressed in baculovirus expression system at 25 uM using FRET-labeled Ser/Thr 18 peptide as substrate measured after 1 hr by Z'-lyte assay relative to control; settings: probe FRET-labeled Ser/Thr 18 peptide
CSNK2A1 = CSNK2A1 (Homo sapiens, UniProt P68400); test: Inhibition of recombinant human full-length His-tagged CSNK2A1 expressed in baculovirus expression system at 25 uM using FRET-labeled Ser/Thr 11 peptide as substrate measured after 1 hr by Z'-lyte assay relative to control; settings: probe FRET-labeled Ser/Thr 11 peptide
Sequence of CSNK2A1 (P68400 whole entry): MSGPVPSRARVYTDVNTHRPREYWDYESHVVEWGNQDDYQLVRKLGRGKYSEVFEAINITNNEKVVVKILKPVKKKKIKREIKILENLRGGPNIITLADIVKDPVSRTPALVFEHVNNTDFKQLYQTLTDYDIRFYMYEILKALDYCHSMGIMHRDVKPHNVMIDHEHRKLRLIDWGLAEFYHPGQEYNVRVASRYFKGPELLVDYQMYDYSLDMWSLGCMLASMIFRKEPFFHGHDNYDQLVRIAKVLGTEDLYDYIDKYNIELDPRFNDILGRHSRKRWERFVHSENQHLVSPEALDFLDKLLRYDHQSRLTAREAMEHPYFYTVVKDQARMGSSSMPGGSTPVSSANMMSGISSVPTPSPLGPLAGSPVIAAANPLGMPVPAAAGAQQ

AURKA = AURKA (Homo sapiens, UniProt O14965); test: Inhibition of recombinant human full-length His-tagged AURKA expressed in baculovirus expression system at 25 uM using FRET-labeled Ser/Thr 01 peptide as substrate measured after 1 hr by Z'-lyte assay relative to control; settings: probe FRET-labeled Ser/Thr 01 peptide
Sequence of AURKA (O14965 whole entry, the tested form may be a part): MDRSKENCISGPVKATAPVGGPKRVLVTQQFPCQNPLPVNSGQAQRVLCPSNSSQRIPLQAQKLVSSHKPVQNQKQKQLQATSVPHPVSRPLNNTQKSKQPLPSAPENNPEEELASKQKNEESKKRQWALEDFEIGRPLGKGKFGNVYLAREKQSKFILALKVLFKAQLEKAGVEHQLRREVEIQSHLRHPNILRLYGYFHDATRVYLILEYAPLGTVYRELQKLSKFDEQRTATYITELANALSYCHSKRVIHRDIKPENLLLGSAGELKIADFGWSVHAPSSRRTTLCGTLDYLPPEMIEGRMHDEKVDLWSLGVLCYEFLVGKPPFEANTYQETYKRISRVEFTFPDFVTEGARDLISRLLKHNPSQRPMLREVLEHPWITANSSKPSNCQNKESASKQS

SGK (Sgk1) = SGK (Sgk1) (Homo sapiens, UniProt O00141); test: Inhibition of recombinant human GST-tagged SGK catalytic domain (60 to 431 residues) expressed in baculovirus expression system at 25 uM using FRET-labeled Ser/Thr 06 peptide as substrate measured after 1 hr by Z'-lyte assay relative to control; settings: probe FRET-labeled Ser/Thr 06 peptide
IKBKB = IKBKB (Homo sapiens, UniProt O14920); test: in vitro; settings: probe FRET-labeled Ser/Thr 05 peptide
BTK = BTK (Homo sapiens, UniProt Q06187); test: Inhibition of full-length recombinant human His-tagged BTK cytoplasmic domain expressed in baculovirus expression system at 25 uM using FRET-labeled tyr 01 peptide as substrate measured after 1 hr by Z'-lyte assay relative to control; settings: probe FRET-labeled tyr 01 peptide

CC(C)COc1cccc(Cl)c1-c1cc2cnc(N)nc2nc1N1C[C@@H]2[C@@H](N)[C@@H]2C1
inhibition at 1 h, 25 µM (EGFR): 6%
inhibition at 1 h, 25 µM (GSK3B): 7%
IC50 (Biotin carboxylase): ≤ 15 nM
Activity (Pseudomonas aeruginosa): 2 ×10⁻⁹ No_unit
inhibition at 1 h, 25 µM (MAPK14): 5%
inhibition at 1 h, 25 µM (FYN): 12%
inhibition at 1 h, 25 µM (IKBKE): 0%
Activity (Escherichia coli [1]): Active
inhibition at 1 h, 25 µM (MAPK1): 6%
inhibition at 1 h, 25 µM (MET): 15%
MIC (Escherichia coli [2]): 0.03 µg/mL (≈ 0.0706 µM)

Nc1ncc2cc(-c3c(Br)cccc3Br)c(N)nc2n1
inhibition at 1 h, 25 µM (EGFR): 58%
inhibition at 1 h, 25 µM (GSK3B): 6%
inhibition at 1 h, 25 µM (MAPK14): 24%
Activity (Escherichia coli [3]): Active
inhibition at 1 h, 25 µM (CDK1/cyclin B): 18%
inhibition at 1 h, 25 µM (CSNK2A1): 4%
inhibition at 1 h, 25 µM (AURKA): 20%
inhibition at 1 h, 25 µM (MAPK1): 26%
inhibition at 1 h, 25 µM (SGK (Sgk1)): 7%

Nc1ncc2cc(-c3c(Cl)cccc3-c3cccnc3)c(N3C[C@@H]4[C@@H](N)[C@@H]4C3)nc2n1
inhibition at 1 h, 25 µM (EGFR): 65%
inhibition at 1 h, 25 µM (GSK3B): 4%
IC50 (Biotin carboxylase): ≤ 15 nM
Activity (Pseudomonas aeruginosa): 9 ×10⁻⁹ No_unit
inhibition at 1 h, 25 µM (FYN): 12%
inhibition at 1 h, 25 µM (IKBKE): 3%
inhibition at 1 h, 25 µM (IKBKB): 5%
inhibition at 1 h, 25 µM (CDK1/cyclin B): 4%
inhibition at 1 h, 25 µM (CSNK2A1): 0%
inhibition at 1 h, 25 µM (AURKA): 9%
inhibition at 1 h, 25 µM (MET): 7%
inhibition at 1 h, 25 µM (BTK): 16%
MIC (Escherichia coli [2]): 0.03 µg/mL (≈ 0.0698 µM)
